According to patent publication US10398725B2, “Ophthalmic compositions and methods of use” (Veloce BioPharma, LLC, priority 2015, dated 2019):

Assays:
Assay type in all cases: in vivo, human
[1] = tested on: Acanthamoeba corneal ulceration; assay: Example 16: patient with Acanthamoeba corneal ulceration; details: before the PVP-I/DMSO composition
Text: Acanthamoeba Corneal Ulceration; Treated with Aqueous 0.4% PVP-I in 39% USP Grade DMSO with Hydroxyethyl Cellulose
This patient was suffering from an Acanthamoeba corneal ulceration. In this type of infection there is often a history of contact lens use and home-made contact lens solutions, however, this is not a prerequisite. Acanthamoeba parasites are often introduced into the eye through a small break in the epithelium and gains foothold to the underlying structures. The patient endorses pain out of proportion with examination. […] The cornea contained multiple bullous lesions with enlarged corneal nerves. There was an overlying epithelial defect and faint ring-shaped infiltrate. The infiltrate had induced minimal stromalysis and the resultant cornea was not thinned. There was no hypopyon, however, cell and flare were present. Corneal cultures were taken, and Acanthamoeba species were identified on non-nutrient agar with E. coli overlay. […] Prepared was a composition as disclosed herein using 0.4% PVP-I in 39% DMSO with hydroxyethyl cellulose. The patient was treated by applying the solution topically to the eye six times daily. […] The corneal had begun the process of re-epithelialization and the ring ulcer began to lessen in intensity. […] A central corneal cicatrix was evident in the area of previous active infiltrate.

[2] = tested on: rosacea blepharoconjunctivitis; assay: Example 3B: person with rosacea blepharoconjunctivitis; details: before the PVP-I/DMSO gel
Text: B. Rosacea Blepahritis; Treated with 1% PVP-I in 44% USP Grade DMSO with 4% Hydroxyethylcellulose in Water
A person with a past ocular history of glaucoma and pseudophakia presented with long standing ocular dryness, grittiness, periocular erythema and eyelid crusting. On facial inspection, nasal and facial telangiectasia with flushing were evident. Their topical medical regimen included Latanoprost 1 drop QHS OU, Brimonidine 1 drop BID OU, and Dorzolamide/Timolol 1 drop BID OU. The patient endorsed utilization of a variety of medicines and treatments to abate this condition, however, they were of little benefit. Failed therapies included topical steroids, antibiotics including azithromycin, combination medicines, and cyclosporine. Oral medicines including doxycycline and DHA/ALA/EPA were also ineffective.
Further towards the posterior tarsal area, dilated, engorged telangiectatic vessels were present. […] A diagnosis of rosacea blepharoconjunctivitis was made.
The patient was given a topical gel of 1% PVP-I in a dimethylsulfoxide (DMSO) vehicle that was prepared from a licensed compounding pharmacy. The treatment was administered twice daily and delivered by rubbing the gel onto the lash line and eyelid. […] Most prominently, much of the conjunctivitis, anterior lid erythema and thickening had reversed. […]

[3] = tested on: eyelid associated molluscum contagiosum; assay: Example 21: patient with eyelid molluscum contagiosum; details: before the PVP-I/DMSO composition
Protocol: Eyelid Molluscum Contagiosum; Treated with 9% PVP-I in 39% USP Grade DMSO with 3% Hydroxyethylcellulose
This patient was suffering from an eyelid associated molluscum contagiosum. […] The process is often associated with pox virus infection of the epithelial layers. […] Cryotherapy with excision was eventually performed, however, the lesions recurred. Prepared was a composition as disclosed herein using 0.9% PVP-I in 39% DMSO with hydroxyethyl cellulose. The patient was treated by applying the solution topically to the eyelid and margin structures four times daily. […] The lesions had begun to involute and diminish in surface area.

Compound | outcome of earlier therapies (patient history) [1] | outcome of earlier therapies (patient history) [3] | also measured
N=C(N)c1ccc(OCCCOc2ccc(C(=N)N)cc2)cc1 [propamidine] | without benefit |  | 
CC[C@H]1OC(=O)[C@H](C)[C@@H](O[C@H]2C[C@@](C)(OC)[C@@H](O)[C@H](C)O2)[C@H](C)[C@@H](O[C@@H]2O[C@H](C)C[C@H](N(C)C)[C@H]2O)[C@](C)(O)C[C@@H](C)CN(C)[C@H](C)[C@@H](O)[C@]1(C)O [azithromycin] |  |  | outcome of earlier therapies (patient history) [2]: Failed
O=C(O)c1ccccc1O [salicylic acid] |  | without benefit | 
[H]/N=C(\N/C(=N/[H])NCCCCCCNC(=N)NC(=N)Nc1ccc(Cl)cc1)Nc1ccc(Cl)cc1 [chlorhexidine] | without benefit |  | 
CC(C)Cn1cnc2c(N)nc3ccccc3c21 [imiquimod] |  | without benefit | 
